Test results from patent publication US9926588B2, “Method for testing and screening P38 MAP kinase modifiers” (THE TRUSTEES OF THE UNIVERSITY OF PENNSYLVANIA, priority 2007, dated 2018).

Columns and labels:
p38 MAPK = assay: Effect of p38 MAPK activators and inhibitors on SMN complex components relocalization under protein synthesis inhibition; assay type: cell-based; settings: for SMN accumulation in the nucleus in the presence of a protein synthesis inhibitor: with a protein synthesis inhibitor such as cycloheximide
Protocol: (§1) HeLa PV were cultured in Dulbecco's modified Eagle's medium (Invitrogen) supplemented with 10% fetal bovine serum (Invitrogen). For screening, cells were seeded onto 384-well plates or, for specific experiments, on glass coverslips the day before treatment. Compounds were added directly into the culture medium to the indicated concentration and the cells were then maintained at 37° C. in a 5% CO2 humidified atmosphere for the duration of the treatment. Dispensing of compounds and other automatic liquid handling steps were performed with a Beckman FX multi-channel system equipped with Hudson Crane robotic systems.
(§2) Indirect immunofluorescence on HeLa PV cells was performed as follows: HeLa cells, plated on glass coverslips, were briefly washed with PBS, fixed in 2% formaldehyde/PBS for 20 minutes at room temperature, permeabilized in 0.5% Triton X-100/PBS for 5 min at room temperature. Cells were blocked in 3% bovine serum albumin for 1 hour at room temperature. Double-label immunofluorescence experiments were performed by separate sequential incubations of each primary antibody, diluted in PBS containing 3% bovine serum albumin, followed by the specific secondary coupled to fluorescein isothiocyanate or TXRD. All incubations were at room temperature for 1 hour. Indirect epifluorescence microscopy was performed with a Nikon Eclipse E800 microscope. Digital images were collected with a Cook Sensicam high performance camera and processed with the IP laboratory software. Processing of samples for immunofluorescence microscopy on cells cultured in 384-well plates was automated and performed with the aid of microplate washers (ELX405, Bio-Tek) in a similar manner to that previously used for individual samples on glass slides. The cells were also stained with DAPI to allow definition of the nucleus in each cell. Digital images were acquired with an automated microscopy and analysis system (IN Cell Analyzer 1000, GE Healthcare). Images were analyzed using automated algorithms with parameters set to calculate mean pixel intensity in each nucleus (defined by DAPI staining and acquired in a separate channel), cytoplasm, and total cell, as well as the relevant calculated ratios of these values.
Next, the effect of p38 MAPK activators and inhibitors on SMN complex components relocalization under conditions of protein synthesis inhibition was monitored.

[1] = tested on: SMN sub-cellular localization in HeLa PV cells; assay: SMN sub-cellular localization by indirect immunofluorescence (anti-SMN 2B1); assay type: cell-based; settings: for redistribution of SMN from the cytoplasm to the nucleus (accumulation of SMN in the nucleus): short treatment (2-6 hours); for concentration dependence of the effect on nuclear localization of SMN: HeLa cells (CHX FIG. 3b; VPA 2-10 mM FIG. 5b); for immunostaining of SMN showing nuclear accumulation (FIG. 8): emetine, puromycin, thapsigargin 10 μM, tunicamycin 10 μg/ml; for nuclear translocation of SMN at longer times: >24 hr (FIG. 5a)
Protocol: as §1
(§3) The following mouse monoclonal antibodies were used for indirect immunofluorescence: 2B1 (anti-SMN), 2E17 (anti-Gemin2), 12H12 (anti-Gemin3), 10G11 (anti-Gemin5), 6E2 (anti-Gemin7), 10E10 (anti-PABP), 6BG10 (anti-FXR1), Y12 (anti-Sm) and 9H10 (anti-hnRNP A1). An affinity-purified rabbit polyclonal antibody was used to detect Gemin6.
as §2
Based on the results obtained in Example 1, a library of ˜5,000 biologically active small molecules was screened on HeLa cells in 384-well plates. Each well was incubated with a different compound (at 10 μM) and the cells were processed for indirect immunofluorescence. Digital images were collected from six fields in each well and analyzed using imaging algorithms for multiple parameters including relative nuclear and cytoplasmic intensities, and number, size and signal intensity of Gems. DAPI-stained images were collected in a separate channel to define the boundary of each nucleus. Images of individual fields in wells were flagged by the software as showing a significant change in SMN sub-cellular localization. These individual wells were examined directly, and active compounds were re-tested for verification (FIG. 2).

[2] = tested on: Gemins 2, 3, 5, 6 and 7 localization in HeLa cells; assay: Immunostaining of Gemins (SMN complex components) in treated cells; assay type: cell-based
Protocol: as §3
Indirect immunofluorescence on HeLa PV cells was performed as follows: HeLa cells, plated on glass coverslips, were briefly washed with PBS, fixed in 2% formaldehyde/PBS for 20 minutes at room temperature, permeabilized in 0.5% Triton X-100/PBS for 5 min at room temperature. Cells were blocked in 3% bovine serum albumin for 1 hour at room temperature. Double-label immunofluorescence experiments were performed by separate sequential incubations of each primary antibody, diluted in PBS containing 3% bovine serum albumin, followed by the specific secondary coupled to fluorescein isothiocyanate or TXRD. All incubations were at room temperature for 1 hour. Indirect epifluorescence microscopy was performed with a Nikon Eclipse E800 microscope. […] Images were analyzed using automated algorithms with parameters set to calculate mean pixel intensity in each nucleus (defined by DAPI staining and acquired in a separate channel), cytoplasm, and total cell, as well as the relevant calculated ratios of these values. […]

HeLa cells = assay: Cell viability / toxicity of treated cells; settings: overnight treatment with 10 μM CHX
[3] = tested on: hnRNP A1, PABP, FXR1 and snRNPs localization in HeLa cells; assay: Localization of other nuclear and cytoplasmic proteins (specificity); assay type: cell-based; settings: 6 hrs of 10 μM CHX (FIG. 3c)
Protocol: as §3
Indirect immunofluorescence on HeLa PV cells was performed as follows: HeLa cells, plated on glass coverslips, were briefly washed with PBS, fixed in 2% formaldehyde/PBS for 20 minutes at room temperature, permeabilized in 0.5% Triton X-100/PBS for 5 min at room temperature. Cells were blocked in 3% bovine serum albumin for 1 hour at room temperature. Double-label immunofluorescence experiments were performed by separate sequential incubations of each primary antibody, diluted in PBS containing 3% bovine serum albumin, followed by the specific secondary coupled to fluorescein isothiocyanate or TXRD. All incubations were at room temperature for 1 hour. Indirect epifluorescence microscopy was performed with a Nikon Eclipse E800 microscope. […] Images were analyzed using automated algorithms with parameters set to calculate mean pixel intensity in each nucleus (defined by DAPI staining and acquired in a separate channel), cytoplasm, and total cell, as well as the relevant calculated ratios of these values.

COc1ccc(C[C@H]2NC[C@H](O)[C@H]2OC(C)=O)cc1 [Anisomycin]
localization of SMN complex components, Anisomycin alone (p38 MAPK; treated cell (FIG. 6: 1 μg/ml Anisomycin)): accumulate in the cytoplasm | SMN accumulation in the nucleus in the presence of a protein synthesis inhibitor (p38 MAPK): inhibit SMN accumulation in the nucleus

Oc1ccc(-c2nc(-c3ccncc3)c(-c3ccc(F)cc3)[nH]2)cc1 [SB202190]
localization of SMN complex components, p38 MAPK inhibitor combined with Anisomycin (p38 MAPK; 10 μM SB202190 + 1 μg/ml Anisomycin, HeLa cells, FIG. 6): accumulation of SMN complex components in the nucleus | localization of SMN complex components, p38 MAPK inhibitor combined with CHX (p38 MAPK; 10 μM SB202190 + 10 μM CHX, HeLa cells, FIG. 6): accumulation of SMN complex components in the nucleus

CCOC(=O)CN1C(=O)CC(C[C@@H](O)[C@@H]2C[C@@H](C)C[C@H](C)C2=O)CC1=O [cycloheximide-N-ethylethanoate]
redistribution of SMN from the cytoplasm to the nucleus (accumulation of SMN in the nucleus) ([1]; HeLa cells): did not show any effect

C[C@@H]1C[C@@H]([C@H](O)CC2CC(=O)NC(=O)C2)C(=O)[C@@H](C)C1 [cycloheximide]
treatment time after which little SMN was detected in the cytoplasm ([1]; HeLa cells): ≥ 8 h | treatment time after which the effect on SMN redistribution was evident ([1]; HeLa cells): 2 h | concentration dependence of the effect on nuclear localization of SMN [1]: concentration-dependent | concentrations exhibiting a clear effect on redistribution of SMN from the cytoplasm to the nucleus ([1]; HeLa cells, FIG. 3a,b): 0.1 to 40 µM | redistribution of SMN from the cytoplasm to the nucleus (accumulation of SMN in the nucleus) ([1]; HeLa cells): most striking accumulation of SMN in the nucleus | reversibility of SMN nuclear accumulation ([1]; cells washed and placed in fresh medium devoid of cycloheximide): reversible | relocation of SMN complex components (Gemins) to the nucleus ([2]; HeLa cells, 6 hours 10 μM CHX (FIG. 4), Gemin3 and Gemin5 excepted): causes most of the components of the SMN complex to accumulate in the nucleus | cell viability (HeLa cells): no reduction in cell viability | localization of other nuclear and cytoplasmic proteins (hnRNP A1, PABP, FXR1, snRNPs) [3]: not significantly affected

CC[C@H]1CN2CCc3cc(OC)c(OC)cc3[C@@H]2C[C@@H]1C[C@H]1NCCc2cc(OC)c(OC)cc21 [emetine]
redistribution of SMN from the cytoplasm to the nucleus (accumulation of SMN in the nucleus) ([1]; HeLa cells): showed the same effect as cycloheximide | immunostaining of SMN showing nuclear accumulation (FIG. 8) ([1]; HeLa cells): nuclear accumulation

COc1ccc(C[C@H](N)C(=O)N[C@H]2[C@@H](O)[C@H](n3cnc4c(N(C)C)ncnc43)O[C@@H]2CO)cc1 [puromycin]
redistribution of SMN from the cytoplasm to the nucleus (accumulation of SMN in the nucleus) ([1]; HeLa cells): showed the same effect as cycloheximide | immunostaining of SMN showing nuclear accumulation (FIG. 8) ([1]; HeLa cells): nuclear accumulation

O=C(CCCCCN1C(=O)c2cccc3cccc(c23)C1=O)NO [scriptaid]
nuclear translocation of SMN at longer times ([1]; HeLa cells): caused the same effect as protein synthesis inhibitors

C/C=C(/C)C(=O)O[C@H]1C(C)=C2[C@H]([C@@H]1OC(=O)CCCCCCC)[C@@](C)(OC(C)=O)C[C@H](OC(=O)CCC)[C@@]1(O)[C@H]2OC(=O)[C@@]1(C)O [thapsigargin]
redistribution of SMN from the cytoplasm to the nucleus (accumulation of SMN in the nucleus) ([1]; HeLa cells): caused SMN to accumulate in the nucleus | immunostaining of SMN showing nuclear accumulation (FIG. 8) ([1]; HeLa cells): nuclear accumulation

CC(/C=C/C(=O)NO)=C\[C@@H](C)C(=O)c1ccc(N(C)C)cc1 [trichostatin A]
nuclear translocation of SMN at longer times ([1]; HeLa cells): caused the same effect as protein synthesis inhibitors

CCCC(CCC)C(=O)O [valproic acid]
concentration dependence of the effect on nuclear localization of SMN [1]: clear concentration dependence effect | nuclear translocation of SMN at longer times ([1]; HeLa cells): caused the same effect as protein synthesis inhibitors | localization of Gemin3 and Gemin5 ([2]; 24 hour treatment with VPA (FIG. 5c)): remain predominantly cytoplasmic

TNFα
localization of SMN complex component, p38 MAPK activator combined with CHX (p38 MAPK; 150 ng/ml TNFα + 10 μM CHX, HeLa cells, FIG. 6): still remained in the cytoplasm | localization of SMN complex components, p38 MAPK activator alone (p38 MAPK; 150 ng/ml TNFα, HeLa cells, FIG. 6): accumulation of SMN complex components in the cytoplasm | SMN accumulation in the nucleus in the presence of a protein synthesis inhibitor (p38 MAPK): inhibit SMN accumulation in the nucleus

tunicamycin
redistribution of SMN from the cytoplasm to the nucleus (accumulation of SMN in the nucleus) ([1]; HeLa cells): caused SMN to accumulate in the nucleus | immunostaining of SMN showing nuclear accumulation (FIG. 8) ([1]; HeLa cells): nuclear accumulation
